The values below come from patent publication EP2253324A1, “Use of a casein-derived peptide and compositions thereof as antihypertensive” (CONSEJO SUPERIOR DE INVESTIGACIONES CIENTIFICAS, priority 2009, dated 2010).

Assay [1] addresses T1, Angiotensin-converting enzyme (Oryctolagus cuniculus, UniProt P12822).
T1 sequence (P12822 34-1310): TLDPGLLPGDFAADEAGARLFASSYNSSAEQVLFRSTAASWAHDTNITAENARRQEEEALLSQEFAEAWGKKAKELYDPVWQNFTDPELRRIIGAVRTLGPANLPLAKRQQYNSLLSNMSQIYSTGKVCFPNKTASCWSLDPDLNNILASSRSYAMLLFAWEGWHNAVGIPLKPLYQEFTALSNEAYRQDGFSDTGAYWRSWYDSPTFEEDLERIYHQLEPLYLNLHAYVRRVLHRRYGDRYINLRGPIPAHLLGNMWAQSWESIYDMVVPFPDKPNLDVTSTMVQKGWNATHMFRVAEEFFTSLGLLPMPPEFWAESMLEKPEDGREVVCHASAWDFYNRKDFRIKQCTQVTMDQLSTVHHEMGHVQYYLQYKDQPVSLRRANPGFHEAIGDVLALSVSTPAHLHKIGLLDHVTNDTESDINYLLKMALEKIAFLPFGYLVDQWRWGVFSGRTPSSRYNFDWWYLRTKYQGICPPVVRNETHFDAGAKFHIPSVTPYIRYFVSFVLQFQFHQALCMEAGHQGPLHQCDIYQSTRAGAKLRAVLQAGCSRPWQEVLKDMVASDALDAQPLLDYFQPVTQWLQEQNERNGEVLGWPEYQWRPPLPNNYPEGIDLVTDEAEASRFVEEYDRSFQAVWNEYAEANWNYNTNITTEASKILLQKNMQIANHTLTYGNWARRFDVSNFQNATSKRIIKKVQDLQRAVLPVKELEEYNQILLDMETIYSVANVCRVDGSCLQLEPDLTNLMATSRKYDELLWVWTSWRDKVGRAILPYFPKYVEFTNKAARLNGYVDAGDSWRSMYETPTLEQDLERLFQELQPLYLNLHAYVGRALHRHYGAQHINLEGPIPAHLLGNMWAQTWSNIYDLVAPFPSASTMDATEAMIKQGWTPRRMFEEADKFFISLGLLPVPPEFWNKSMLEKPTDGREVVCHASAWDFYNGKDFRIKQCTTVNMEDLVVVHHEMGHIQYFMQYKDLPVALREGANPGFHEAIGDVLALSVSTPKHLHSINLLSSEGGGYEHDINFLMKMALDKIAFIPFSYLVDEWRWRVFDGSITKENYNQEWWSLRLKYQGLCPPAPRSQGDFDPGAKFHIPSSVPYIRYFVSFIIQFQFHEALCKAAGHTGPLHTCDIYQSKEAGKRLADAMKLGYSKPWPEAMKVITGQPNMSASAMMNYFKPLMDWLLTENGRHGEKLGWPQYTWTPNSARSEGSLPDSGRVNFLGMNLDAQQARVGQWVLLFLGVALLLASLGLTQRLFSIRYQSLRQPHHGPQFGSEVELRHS
Briefly: ACE-inhibitory activity, spectrophotometric assay (Cushman & Cheung, modified). The class given is biochemical. To be noted: synthetic peptides. Here is the method: ACE-inhibitory activity was measured by Cushman & Cheung 1971 (Biochemical Pharmacology, 20, 1637-1648) spectrophotometric assay with some modifications, as reported by (Quirós et al., 2007). For this purpose, protein concentration of the aliquots of the pepsin hydrolysate was determined by the Kjeldahl method. The protein content of the fractions collected from HPLC was estimated by the bicinchoninic acid assay (Pierce, Rockford, IL, USA) using bovine serum albumin, as standard, and peptide concentration of the chemically synthesized peptides was based in the dry weight of the peptides. Chemical synthesized peptides were purchased from GenScript Corp. (Piscataway, NJ, USA).

For another assay, the target named is ACE (Homo sapiens, UniProt P12821). Conditions: cited from earlier work; for IC50: literature values; for ACE-inhibitory activity: literature, in vitro.
Another assay concerns human volunteers. To be noted: literature; cited from earlier work.
A further assay deals with SHR. To be noted: literature; cited from earlier work.
Another assay concerns SHR rats. The experiment in a line: Systolic blood pressure in spontaneously hypertensive rats, tail-cuff method. The class given is in vivo. Conditions: single oral dose 5 mg kg^-1, followed up to 24 hours. As for the experimental part:
All procedures were carried out in accordance with conventional guidelines for experimentation with animals. Twelve-week old male SHR rats were used (Janvier, France); they were housed in groups of four per cage in a regulated environment with a 12 h light/dark cycle in a standard experimental laboratory of the Animal Experimentation Service of the Salamanca University (N°PAE SA001). The animals were deprived of solid diet 12 hours before experiments began but received a nutritive solution of 8% sucrose in 0.2% NaCl to avoid excessive dehydratation. The rats received a single dose of the synthesized peptides or zofenopril (5 mg kg^-1) dissolved in ultrapure water and the control group received the same volume of water. Systolic blood pressure (SBP) was measured in awake rats with an automated multichannel system, using the tail-cuff method with a photoelectric sensor (Niprem 546, Cibertec SA, Spain) as described in Guerrero et al., 2003 (Journal of Cardiovascular Pharmacology 42: 348-355). SBP was measured before administration, and also at 2, 4, 6, 8, 10 and 24 hours post-administration. The changes in SBP were expressed as the differences before and after administration of the different products. Unpaired student's t-test was used to compare groups.

[2] abbreviates: mean ± standard error (n=3), read-out: IC50± SE.

A word on the IC50: it is the concentration at which inhibition is half-maximal.

Read-outs that look alike come from different tables or passages of the source. Where no end group is shown, it is not given here.

Chain of ACE (P12821 30-1306, species assumed): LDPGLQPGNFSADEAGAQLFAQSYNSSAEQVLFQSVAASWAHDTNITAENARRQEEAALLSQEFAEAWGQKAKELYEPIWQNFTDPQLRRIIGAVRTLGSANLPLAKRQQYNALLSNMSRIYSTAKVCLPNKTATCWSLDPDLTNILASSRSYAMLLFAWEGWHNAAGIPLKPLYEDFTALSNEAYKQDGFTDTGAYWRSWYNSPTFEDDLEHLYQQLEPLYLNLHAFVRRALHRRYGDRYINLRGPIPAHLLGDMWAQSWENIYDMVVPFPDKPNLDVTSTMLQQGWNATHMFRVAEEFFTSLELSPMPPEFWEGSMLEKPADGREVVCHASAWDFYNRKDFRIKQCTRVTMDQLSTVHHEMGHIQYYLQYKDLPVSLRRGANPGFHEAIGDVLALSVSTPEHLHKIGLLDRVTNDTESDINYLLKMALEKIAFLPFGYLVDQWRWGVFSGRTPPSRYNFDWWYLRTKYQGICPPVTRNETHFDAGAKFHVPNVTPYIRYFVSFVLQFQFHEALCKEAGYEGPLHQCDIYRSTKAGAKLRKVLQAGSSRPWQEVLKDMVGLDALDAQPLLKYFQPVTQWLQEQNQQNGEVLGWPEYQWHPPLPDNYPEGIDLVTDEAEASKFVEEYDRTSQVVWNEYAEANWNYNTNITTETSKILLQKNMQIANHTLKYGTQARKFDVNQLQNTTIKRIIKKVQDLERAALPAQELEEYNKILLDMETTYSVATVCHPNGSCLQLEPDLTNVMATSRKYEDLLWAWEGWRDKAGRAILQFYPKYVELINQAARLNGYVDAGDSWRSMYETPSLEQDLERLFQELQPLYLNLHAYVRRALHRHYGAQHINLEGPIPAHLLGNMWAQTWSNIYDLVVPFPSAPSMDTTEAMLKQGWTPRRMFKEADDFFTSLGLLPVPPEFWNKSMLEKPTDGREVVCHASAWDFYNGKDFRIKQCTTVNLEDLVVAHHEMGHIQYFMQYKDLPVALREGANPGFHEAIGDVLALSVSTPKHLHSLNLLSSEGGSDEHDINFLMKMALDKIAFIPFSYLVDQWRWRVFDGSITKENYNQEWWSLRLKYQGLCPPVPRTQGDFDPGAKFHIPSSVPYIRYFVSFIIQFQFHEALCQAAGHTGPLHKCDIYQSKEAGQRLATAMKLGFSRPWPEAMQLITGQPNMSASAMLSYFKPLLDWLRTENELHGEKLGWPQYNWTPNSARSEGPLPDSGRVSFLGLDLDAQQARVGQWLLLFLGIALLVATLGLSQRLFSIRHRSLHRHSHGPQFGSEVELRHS

Take HLPLPLL [HLPLPLL]: the IC50 in assay [1] (setting [2]) is 34.4 ± 2.22 µM.
On to “SEQ ID NO: 3: αs1-CN peptide previously described as an ACE inhibitor (DAYPSGAW)”, for which, in the assay with ACE, the IC50 is 98 µM.
Consider “β-lactoglobulin f(142-148): literature peptide with in vitro ACE-inhibitory activity (ALPMHIR; UniProt P02754 158-164, looked up, fragment)”, for which, in the assay with ACE, the ACE-inhibitory activity entry is given as “in vitro ACE-inhibitory activity”. In the assay on human volunteers, the “effect in human volunteers” value was “did not have effect”.
For the substance “SEQ ID O: 8: literature ACE-inhibitory peptide whose C-terminal tripeptide is LQY (FPQYLQY)”, in the assay with ACE, the IC50 is 14 µM.
“αs1-casein f(23-27): literature peptide with ACE-inhibitory activity but no hypotensive effect in SHR (FFVAP; UniProt P02662 38-42, looked up, fragment)”: the ACE-inhibitory activity result with ACE is on record as “potent ACE-inhibitory activity”. For the same substance, in the assay with SHR, the “hypotensive effect in SHR” value was “no hypotensive effect”.
For VAPFPEVF [VAPFPEVF], the IC50 in assay [1] (setting [2]) worked out at 363 ± 23.6 µM.
On to “SEQ ID NO: 5: ACE-inhibitory peptide previously described in the literature, shares five residues with SEQ ID NO: 4 (ENLLRF)”, for which the IC50 with ACE is 82.4 µM.
Take AYFYPEL [AYFYPEL]: the IC50 was 6.58 ± 0.5 µM in assay [1] (setting [2]) and less than 20 µM in assay [1] (values in text, read-out: IC50).
As for RYLGY [RYLGY], the IC50 in assay [1] (setting [2]) was 0.71 ± 0.08 µM; in assay [1] (values in text, read-out: IC50), less than 20 µM. Moreover, the “antihypertensive effect (change in SBP), in words” value in the assay on SHR rats is “lowered SBP in a progressive and maintained manner”.
For FVAPFPEV [FVAPFPEV], the IC50 in assay [1] (setting [2]) came out at 476 ± 41.7 µM.
Regarding “SEQ ID NO: 7: literature ACE-inhibitory sequence included in peptide SEQ ID NO: 6 (VTSTAV)”, the IC50 in the assay with ACE is 52 µM.
On to YQKFPQY [YQKFPQY], for which the IC50 in assay [1] (setting [2]) was 20.1 ± 1.25 µM; in assay [1] (values in text, read-out: IC50), less than 20 µM.
